Legend:
CD68 = experiment: Immunohistochemistry of B16F10 tumors (Day 17), CD68; type: in vivo, mouse; details: B16F10 tumors Day 17, 200 mg/kg i.p.
Excerpt: Immunohistochemical staining and analyses. Rabbit monoclonal anti-CD3 (cat. no. ab16669; mouse, rat and human reactive), rabbit monoclonal anti-PD-1 (cat. no. ab214421), rabbit monoclonal anti-CD68 (cat. no. ab125212) antibodies were obtained from Abcam, rabbit monoclonal anti-phospho-ERK (Thr^202/Tyr^204) (cat. no. CST4370), rabbit monoclonal total ERK (cat. no. CST4695), antibodies were obtained from Cell Signaling Technology. Rabbit polyclonal anti-PD-L1 (cat. no. PA5-20343) antibody was obtained from ThermoFisher.
Formalin fixed, paraffin embedded sections were prepared from tumors. Heat-induced epitope retrieval was applied to all deparaffinized sections (4 μm sections on Superfrost slides) with citrate buffer, pH 6.0 for 5 min at 110° C. Sections were blocked with Dual Endogenous Enzyme Block (DAKO, S2003) for 10 min and then with 2% skim milk for 20 min. […] Integrated optical density (IOD) or area of positive staining (red chromagen) was assessed using Image-Pro Plus software (Cybernetics, Bethesda, MD, USA). Positive staining was the average of quantitation in 4-8 fields of view under 20× or 40× objectives.
Immunohistochemical analysis was performed on B16F10 tumors (Day 17) from BT2- or vehicle-treated mice with antibodies to CD68. IOD and tissue area were assessed using Image-Pro Plus and the IOD/μm^2 was determined.

IFN-γ = experiment: Mouse serum IFN-γ levels by ELISA; type: in vivo; details: B16F10 tumor-bearing mice Day 17, 200 mg/kg i.p., vs vehicle
Description: Mouse serum IFN-γ levels. Whole blood was collected from Day 17 mice and spun at 1500 g for 10 min at 4° C. Serum was extracted from the top layer and stored at −80° C. IFN-γ levels were measured using the mouse IFN-γ (Improved) ELISA kit (Invitrogen, cat. no. KMC4021) according to the manufacturer's protocol, with absorbance being read at 450 nm. GraphPad Prism 9 software was used to generate the standard curve. IFN-γ levels in mouse serum were measured alongside the standard curve by using GraphPad Prism 9.
IFN-γ is a biomarker of cellular immunity and the antitumor immune response. Elevated IFN-γ is associated with a systemic immune response in cancer patients and tumor-bearing mice after immune checkpoint therapy. Since IFN-γ is produced by T cells, levels of IFN-γ in the sera of tumor-bearing mice treated with vehicle or BT2 were determined.

DUSP8 = experiment: Western blotting for DUSP8, Jurkat T cells; type: cell-based, human; details: 24 h
Description: Western blotting. Cells were treated with compounds and times indicated and total cell lysates were prepared in RIPA buffer. Lysates (10 μg) were resolved by SDS-PAGE and transferred to Immobilon-P polyvinylidene difluoride (PVDF) membranes (Millipore, USA).
Membranes were blocked with 5% skim milk and incubated with rabbit monoclonal anti-c-Jun (Abcam, cat. no. ab32137; mouse, rat and human reactive) antibody, rabbit monoclonal anti-PD-1 (Abcam, cat. no. ab214421) antibody, mouse monoclonal β-actin antibody (Sigma-Aldrich, cat. no. A5316), anti-phospho-SAPK/JNK (Thr^183/Tyr^185) (98F2) (CST, cat. no. 4671) antibody, anti-phospho-p44/42 MAPK (ERK1/2) (Thr^202/Tyr^204) (D13.14.4E) (CST, cat. no. 4370) antibody, anti-phospho-p38 MAPK (Thr^180/Tyr^182) (D3F9) (CST, cat. no. 4511) antibody, anti-SAPK/JNK antibody (CST, cat. no. 9252), anti-p44/42 MAPK (ERK1/2) (137F5) antibody (CST, cat. no. 4695), anti-p38 MAPK antibody (CST, cat. no. 9212), anti-DUSP8 antibody (Abcam, cat. no. ab198175) or anti-c-MAF (BLR045F) antibody (Abcam, cat. no. ab243901). […] Chemiluminescence was detected using the Western Lightning Chemiluminescence system (Thermo Scientific, USA) and ImageQuant™ LAS 4000 biomolecular imager (GE Healthcare Life Sciences, USA). Band intensity in images generated with the LAS 4000 was quantified using NIH Image J. […]

Compound: CCOC(=O)Nc1ccc2c(c1)C(=O)N(CC)c1ccccc1O2 [BT2, (10-ethyl-11-oxo-10,11-dihydro-dibenzo[b,f][1,4]oxazepin-2-yl)-carbamic acid ethyl ester]
- CD68 levels in the tumors (IHC) (CD68): reduced levels of CD68
- circulating (serum) IFN-γ levels (IFN-γ): elevated
- DUSP8 protein levels (Western blot) (DUSP8): elevated

Reference: patent US20250352555A1, “METHOD OF INCREASING IMMUNE CELL ACTIVATION AND/OR TREATING CANCER USING DIBENZOXAZEPINONES” (VASCULAR THERAPEUTICS PTY LTD, priority 2022, published 2025)
